Source: ChEMBL document CHEMBL2021832, “On the search for potential anti-Trypanosoma cruzi drugs: synthesis and biological evaluation of 2-hydroxy-3-methylamino and 1,2,3-triazolic naphthoquinoidal compounds obtained by click chemistry reactions” (Eur J Med Chem, 2012)
Active and inactive are the calls of the source. The calls are words filed in the database; no cut-off is given here.

What was measured:
Trypanosoma cruzi [1] = experiment: Ratio of benznidazole IC50 to compound IC50 for bloodstream form of Trypanosoma cruzi Y; type: functional
Trypanosoma cruzi [2] = experiment: Trypanocidal activity against bloodstream form of Trypanosoma cruzi Y isolated from albino mouse blood after 24 hrs by neubauer chamber analysis; type: functional, organism-based
Biomphalaria glabrata = experiment: Molluscicidal activity against Biomphalaria glabrata; type: functional, organism-based
[3] = Selectivity index, ratio of LC50 for mouse embryo HMC to IC50 for bloodstream form of Trypanosoma cruzi Y
[4] = Cytotoxicity against mouse embryo HMC after 24 hrs by Alamar blue assay; conditions: mouse embryo HMC cells, read-out: LC50

SMILES | IC50 (Trypanosoma cruzi [2]) | other results
[N-]=[N+]=NC1=C(Cl)C(=O)c2ccccc2C1=O | 51.8 µM | Ratio IC50 (Trypanosoma cruzi [1]): 2
CC1(C)OC2=C(C(=O)C(=O)c3ccccc32)C1n1cc(-c2ccc(Br)cc2)nn1 (stereo not given) | 102 µM | 
COc1ccc(-c2cn(C3C4=C(OC3(C)C)c3ccccc3C(=O)C4=O)nn2)cc1 (stereo not given) | 359 µM | 
O=C1C(O)=C(CN2CC3CCC2CC3)C(=O)c2ccccc21 | 397 µM | Activity (Biomphalaria glabrata): Active
Cc1ccc(-c2cn(C3C4=C(OC3(C)C)c3ccccc3C(=O)C4=O)nn2)cc1 (stereo not given) | 39.6 µM | Ratio IC50 (Trypanosoma cruzi [1]): 2.5
[N-]=[N+]=NC1=CC(=O)c2ccccc2C1=O | 41.6 µM | 
O=C1C=C(Cl)C(=O)c2ccccc21 | 12.3 µM | Ratio LC50/IC50 [3]: 3.6; CC50 at 24 h [4]: 41.3 µM
CC(C)(O)c1cn(C2=CC(=O)c3ccccc3C2=O)nn1 | 80.2 µM | 
CC(C)(CO)NCC1=C(O)C(=O)c2ccccc2C1=O | 370 µM | Activity (Biomphalaria glabrata): Active
CC(C)=CCC1=C(OS(C)(=O)=O)C(=O)c2ccccc2C1=O | 25.7 µM | Ratio LC50/IC50 [3]: 0.6; CC50 at 24 h [4]: 16.7 µM
O=C1C=C(n2cc(-c3ccc(Br)cc3)nn2)C(=O)c2ccccc21 | 492 µM | 
CCCN(CCC)CC1=C(O)C(=O)c2ccccc2C1=O | 206 µM | Activity (Biomphalaria glabrata): Active
O=C1C=C(n2cc(-c3ccc([N+](=O)[O-])cc3)nn2)C(=O)c2ccccc21 | 2010 µM | 
O=C1C=C(O)C(=O)c2ccccc21 [LAWSONE] | > 2500 µM | 
Cc1ccc(-c2cn(C3=CC(=O)c4ccccc4C3=O)nn2)cc1 | 113 µM | 
O=C1C=C(n2cc(-c3ccccc3)nn2)C(=O)c2ccccc21 | 10.9 µM | Ratio LC50/IC50 [3]: 18.9; CC50 at 24 h [4]: 206 µM; Ratio IC50 (Trypanosoma cruzi [1]): 9.5
CC1(C)OC2=C(C(=O)C(=O)c3ccccc32)C1n1cc(-c2ccc([N+](=O)[O-])cc2)nn1 (stereo not given) | 21.8 µM | Ratio IC50 (Trypanosoma cruzi [1]): 2.5
O=C1C(O)=C(CN2CCCC2)C(=O)c2ccccc21 | 396 µM | Activity (Biomphalaria glabrata): Active
CCOC(=O)c1cn(C2=CC(=O)c3ccccc3C2=O)nn1 | 67.6 µM | 
O=C1C(Cl)=C(n2cc(-c3ccccc3)nn2)C(=O)c2ccccc21 | 42 µM | 
CC1(C)OC2=C(C(=O)C(=O)c3ccccc32)C1n1cc(-c2ccc(F)cc2)nn1 (stereo not given) | 20.8 µM | Ratio IC50 (Trypanosoma cruzi [1]): 2.5
CC(C)=CCC1=C(OS(=O)(=O)c2ccc(C)cc2)C(=O)c2ccccc2C1=O | 158 µM | 
O=C1C(O)=C(CNC2CCCC2)C(=O)c2ccccc21 | 361 µM | Activity (Biomphalaria glabrata): Active
O=C1C=C(n2cc(CO)nn2)C(=O)c2ccccc21 | 17.7 µM | Ratio LC50/IC50 [3]: 6.1; CC50 at 24 h [4]: 107 µM; Ratio IC50 (Trypanosoma cruzi [1]): 5.8
CC1(C)CC2=C(O1)c1ccccc1C(=O)C2=O [NOR-BETA-LAPACHONE] | > 4800 µM | 
COc1ccc(-c2cn(C3=CC(=O)c4ccccc4C3=O)nn2)cc1 | 45.8 µM | 
